# Source: ChEMBL document CHEMBL1157041, “Support vector machines: development of QSAR models for predicting anti-HIV-1 activity of TIBO derivatives” (Eur J Med Chem, 2010)
# Tested on: Human immunodeficiency virus 1
# Assay: Antiviral activity against HIV1 infected in human MT4 cells assessed as protection against virus-induced cytopathic effect
# Format: functional, organism-based
# Settings: Human immunodeficiency virus 1, MT4
row,Structure (SMILES),IC50 [µM]
1,C[C@H]1Cn2c(=O)[nH]c3cccc(c32)CN1Cc1ccco1,107
2,C/C=C(\C)CN1Cc2cccc3[nH]c(=O)n(c23)C[C@@H]1C,28.8
3,C=C(C)CN1Cc2cccc3[nH]c(=O)n(c23)C(C)C1 (stereo not given),31.6
4,CC(C)=CCN1C(C)c2cccc3[nH]c(=O)n(c23)[C@@H](C)[C@H]1C (relative stereo),56.2
5,CCCN1Cc2cccc3[nH]c(=O)n(c23)CC1C (stereo not given),60.3
6,C=C(C)CN1Cc2cccc3[nH]c(=O)n(c23)C[C@@H]1C,46.8
7,C[C@@H]1CN(CC2CC2)Cc2cc(Cl)cc3[nH]c(=S)n1c23,2.19
8,C=C(CC)CN1Cc2cccc3[nH]c(=O)n(c23)C[C@@H]1C,37.2
9,CC(C)=CCN1[C@H](C)Cn2c(=S)[nH]c3cccc(c32)[C@@H]1C,1.15
10,CC1c2cccc3[nH]c(=S)n(c23)[C@@H](C)[C@H](C)N1CC1CC1 (stereo not given in full),13.5
11,C#CCN1Cc2cccc3[nH]c(=O)n(c23)C[C@@H]1C,575
12,C=C(Br)CN1Cc2cccc3[nH]c(=O)n(c23)C[C@@H]1C,61.7
13,COC(=O)CN1Cc2cccc3[nH]c(=O)n(c23)C[C@@H]1C,851
14,CC(C)=CCN1[C@@H](C)Cn2c(=S)[nH]c3cccc(c32)[C@@H]1C (relative stereo),0.0417
15,C=CCCN1Cc2cccc3[nH]c(=O)n(c23)C[C@@H]1C,50.1
16,C/C=C/CN1Cc2cccc3[nH]c(=O)n(c23)C[C@@H]1C,57.5
17,C=CC(=C)CN1Cc2cccc3[nH]c(=O)n(c23)C[C@@H]1C,70.8
18,C[C@H]1Cn2c(=O)[nH]c3cccc(c32)CN1C/C=C\c1ccccc1,123
19,CC(C)=CCN1C(C)c2cccc3[nH]c(=S)n(c23)[C@@H](C)[C@H]1C (relative stereo),2.24
20,C[C@H]1Cn2c(=O)[nH]c3cccc(c32)CN1CC1CC1,43.7
21,CCCN1Cc2cccc3[nH]c(=O)n(c23)C[C@@H]1C,89.1
22,CC(C)=CCN1Cc2cc(Cl)c(Cl)c3nc(S)n(c23)C[C@@H]1C,0.0251
23,C=CCN1Cc2cccc3[nH]c(=O)n(c23)C[C@@H]1C,70.8
24,C=C(C)CN1Cc2cccc3[nH]c(=O)n(c23)CC1C (stereo not given),34.7
25,C/C=C\CN1Cc2cccc3[nH]c(=O)n(c23)C[C@@H]1C,34.7
26,CCCCN1Cc2cccc3[nH]c(=O)n(c23)C[C@@H]1C,100
27,CC(C)=CCN1Cc2cccc3nc(O)n(c23)C[C@@H]1C,12.6
28,CCCN1Cc2cccc3[nH]c(=S)n(c23)CC1C (stereo not given),1.66

# Same assay, conditions: mt4
row,Structure (SMILES),pIC50
1,CC(C)=CCN1Cc2cccc3[nH]c(=S)n(c23)C[C@@H]1C (stereo in doubt; 81),7.01
2,CC(C)=CCN1Cc2cccc3[nH]c(=S)n(c23)C[C@@H]1C (stereo in doubt; 1),7.36
